Measured values as given in patent EP4620949A1, “ACKR3 MODULATORS FOR CARDIOVASCULAR OR ANTIPLATELET THERAPY” (Eberhard Karls Universität Tübingen (Medizinische Fakultät), priority 2024, dated 2025).
Values joined by “and” are separate entries in the source; they are usually repeats but may differ in a detail not shown here. Equal entries are not always repeated.

How the values were obtained:
platelets = assay: Flow cytometry assay of platelet degranulation (P-Selectin surface expression in PRP); assay type: cell-based, human; details: PRP pre-incubated with compound (100 µM), then CRP-XL (1 µg/mL); % ±SEM normalized to CRP-XL-treated vehicle PRP
Description: Platelet Degranulation Studies of Derivatives. Concurrent with the β-Arrestin recruitment potency optimization, the compounds were also tested and developed according to their functional activity. To determine the ability of a compound to modulate platelets, P-Selectin surface expression was measured. P-Selectin is a surface protein involved in cell adhesion mechanisms and can be found on activated platelets. After induction of platelet aggregation in platelet-rich plasma (PRP), treatment with the respective compound should therefore lead to a significant reduction in P-Selectin expression. […]. […]. Similarly, platelet degranulation potency was highly sensitive toward "linker"-changes (Structure C, Table 1). A distinct trend could not be registered. […]. Flow Cytometry Assay. The inhibition of platelet degranulation was determined via flow cytometry experiments. Platelets were treated with collagen-related peptide (CRP-XL, CambCol Laboratories, Cambridge, UK) and the platelets' activation state was determined (Geue, S.; Aurbach, K.; Manke, M.-C.; Manukjan, G.; Münzer, P.; Stegner, D.; Brähler, C.; Walker-Allgaier, B.; Märklin, M.; Borst, C. E.; Quintanilla-Fend, L.; Rath, D.; Geisler, T.; Salih, H. R.; Seizer, P.; Lang, F.; Nieswandt, B.; Gawaz, M.; Schulze, H.; Pleines, I.; Borst, O. Pivotal role of pdk1 in megakaryocyte cytoskeletal dynamics and polarization during platelet biogenesis. Blood 2019, 134, 1847-1858; and Malehmir, M.; Pfister, D.; Gallage, S.; Szydlowska, M.; Inverso, D.; Kotsiliti, E.; Leone, V.; Peiseler, M.; Surewaard, B. G. J.; Rath, D.; Ali, A.; Wolf, M. J.; Drescher, H.; Healy, M. E.; Dauch, D.; Kroy, D.; Krenkel, O.; Kohlhepp, M.; Engleitner, T.; Olkus, A.; Sijmonsma, T.; Volz, J.; Deppermann, C.; Stegner, D.; Helbling, P.; Nombela-Arrieta, C.; Rafiei, A.; Hinterleitner, M.; Rail, M.; Baku, F.; Borst, O.; Wilson, C. L.; Leslie, J.; O'Connor, T.; Wes-ton, C. J.; Chauhan, A.; Adams, D. H.; Sheriff, L.; Teijeiro, A.; Prinz, M.; Bogeska, R.; An-stee, N.; Bongers, M. N.; Notohamiprodjo, M.; Geisler, T.; Withers, D. J.; Ware, J.; Mann, D. A.; Augustin, H. G.; Vegiopoulos, A.; Milsom, M. D.; Rose, A. J.; Lalor, P. F.; Llovet, J. M.; Pinyol, R.; Tacke, F.; Rad, R.; Matter, M.; Djouder, N.; Kubes, P.; Knolle, P. A.; Unger, K.; Zender, L.; Nieswandt, B.; Gawaz, M.; Weber, A.; Heikenwalder, M. Platelet gpibα is a mediator and potential interventional target for nash and subsequent liver cancer. Nat. Med. 2019, 25, 641-655). Briefly, PRP was isolated from peripheral human blood collected in citrate-phosphate-dextrose solution with adenine (CPDA) and diluted with phosphate-buffered saline (PBS) (Sigma Aldrich Co., Ltd., St. Luis, Missouri, USA) supplemented with CaCl2 and MgCl2. PRP (106 platelets /sample) was preincubated with the respective compound (100 µM) for 15 min. Samples were treated with 1 µg/ml CRP-XL (CambCol Laboratories, Cambridge, UK) for 30 min at room temperature in the presence of the respective fluorochrome-conjugated antibody against P-Selectin (CD62P-FITC; Beckman Coulter, Brea, CA, USA). Subsequently, samples were fixed in 0.5% paraformaldehyde and analyzed on a FACS-Calibur flow cytometer (FACS-Caliber flow cytometer, Becton-Dickinson, East Rutherford, NJ, USA). Mean fluorescence intensity (MFI) was used as a quantitative measurement of platelet surface expression.

Kinetic solubility assay = assay type: physicochemical; details: PBS buffer with 1% DMSO, 4 °C, aqueous buffer, kinetic from dmso stock, 1% DMSO, 99% PBS buffer (pH 7.4)
Description: Solubility Assay. A 100 mL flask with phosphate-buffered saline was prepared from NaCl, KCI, Na2HPO4, KH2PO4, and distilled water. The buffer was adjusted to pH 7.4 with HCl. Afterwards, 10mM stock solutions of compounds in DMSO were prepared. 10 µL compound stock solution was added to 990 µL PBS in Eppendorf tubes. As a reference, 10 µL compound stock solution was added to 990 µL HPLC-grade MeOH in Eppendorf tubes. All tubes were centrifuged (16000 relative centrifugal force, 4 °C, 20 min). Subsequently, 600 µL supernatant was extracted carefully and filled into HPLC vials. […] Compounds solubility was calculated by AUC of compound in PBS divided by AUC of reference solution multiplied by concentration of the compound in solution.

[1] = Metabolic stability assay in human liver microsomes; assay type: in vitro ADME
Description: (§1) Metabolic Stability Assay. Pooled liver microsomes from mice (male) and humans (male) were purchased from Sekisui XenoTech, LLC, Kansas City, KS, USA. Metabolic stability assays were performed in the presence of an NADPH-regenerating system consisting of 5 mM glucose-6-phosphate, 5 U/mL glucose-6-phosphate dehydrogenase, and 1 mM NADP^+. Liver microsomes (20 mg/mL), NADPH-regenerating system, and 4 mM MgCl2·6 H2O in 0.1 M TRIS-HCl-buffer (pH 7.4) were preincubated for 5 min at 37 °C and 750 rpm on a shaker. The reaction was started by adding the preheated compound at 10 mM resulting in a final concentration of 0.1 mM. […] The samples were vortexed for 30 s and centrifuged (21910 relative centrifugal force, 4 °C, 20 min). The supernatant was used directly for LC-MS analysis.
(§2) All compound incubations were conducted at least in triplicates. Additionally, a negative control containing BSA (20 mg/mL) instead of liver microsomes and a positive control using Verapamil instead of the compound was performed. A limit of 1% organic solvent during incubation was not exceeded. […]

HEK293 cells = assay: RealTime-Glo MT cell viability assay; assay type: cell-based; details: concentrations of 1 µM and below, up to 72 h
Description: Cell viability studies. […].
Cell Viability Assay. RealTime-Glo™ MT Cell Viability Assay (Promega Corporation, Madison, WI, USA) was performed using THP1 cells and HEK293 cells as indicated in the manufacturer's manual to measure a compound's cytotoxicity on cells. In brief, in a white solid-bottom 96-well plate cells (5x10^3/well) were seeded and incubated with the respective compounds diluted in DMEM (Gibco, Carlsbad, CA, USA). After cell seeding viability reagent is added. Subsequently, cells were incubated with the compound and viability reagent containing medium at 37 °C, 5% CO2 for 72 h. The luminescence signal was determined after 1, 24, 48, and 72 hours on a GloMax®-Multi Detection System plate reader (Promega Corporation, Madison, Wl, USA).

[2] = Metabolic stability assay in mouse liver microsomes; assay type: in vitro ADME; details: after 60 min
Description: as §1, §2

**Q.** With CCCCN(CCCNC(=O)c1ccc(-c2ccccc2)s1)Cc1ccccc1 [Compound 27, N-(3-(benzyl(butyl)amino)propyl)-5-phenylthiophene-2-carboxamide] as the molecule, how does the P-Selectin expression reduction (platelets) read?
**A.** 77% and 77±6%

**Q.** What about the solubility (Kinetic solubility assay) of the same molecule?
**A.** 10 µg/mL

**Q.** What about the solubility (Kinetic solubility assay; average of three independent experiments ± SEM) of the same molecule?
**A.** 28 ± 4 µM

**Q.** And the compound remained ([1]; 60 min)?
**A.** Around 69%

**Q.** What about the “metabolic stability (in words)” value ([1]; over the course of 60 min) of the same molecule?
**A.** stable

**Q.** And the “cell toxicity / tolerability (in words)” value (HEK293 cells)?
**A.** tolerated well

**Q.** What about the compound remained [2] of the same molecule?
**A.** around 24%
